Source: patent US11834698B2, “Process for determining enzyme activity in a cell by activity-based reporter gene technology (ABRGT)” (INDIAN INSTITUTE OF SCIENCE EDUCATION AND RESEARCH, priority 2018, dated 2023)
Each block holds one compound with its values, some of them ahead of it.

How the values were obtained:
caspase-3 GFPspark = molecular target: T1, caspase-3 GFPspark (Homo sapiens, UniProt P42574); experiment: AbRGT FRET imaging / acceptor photobleaching, caspase-3 GFPspark in MCF-7 cells; format: cell-based; set-up: host or cells: MCF-7, HeLa, HEK-293; details: MCF-7, STS 1 μM 4 h
T1 sequence (P42574 29-175 limits assumed): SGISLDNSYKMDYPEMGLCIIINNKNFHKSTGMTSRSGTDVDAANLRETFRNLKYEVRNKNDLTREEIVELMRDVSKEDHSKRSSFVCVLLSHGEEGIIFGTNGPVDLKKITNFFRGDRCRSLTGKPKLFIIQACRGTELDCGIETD
T1 sequence (P42574 176-277 limits assumed): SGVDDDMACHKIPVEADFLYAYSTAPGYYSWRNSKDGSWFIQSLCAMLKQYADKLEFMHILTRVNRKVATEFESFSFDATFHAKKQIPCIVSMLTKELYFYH
Description: FIG. 2 depicts (a) a schematic representation of AbRGT in determining the specific activation of caspase-3 GFPspark tagged enzyme by FRET effect utilizing Rh-VAD-FMK (probe 1). (b) The fluorescence signal was collected in GFP, FRET and Rhodamine (Rh) channels. MCF-7 cells transfected with caspase-3 GFPspark treated with (i) 1 μM STS for 4 h or (ii) 1 μg/ml TRAIL for 5 h and then labelled with probe 1. (iii) Un-transfected MCF-7 cells were treated with 1 μM STS for 4 h and then labelled with the probe 1. MCF-7 cells transfected with enhanced green fluorescent protein (EGFP) plasmid treated (iv) with 1 μM STS or (v) without STS for 4 h and then labelled with probe 1, scale bar, […]. (c) FRET validation between GFPspark and rhodamine fluorophore using the acceptor photobleaching method. Images for GFP and rhodamine fluorescence signals were collected in GFP and FRET channels pre- and post-bleaching of rhodamine signals. (d) Quantification of change in GFP fluorescence intensity after rhodamine photo-bleaching in both unbleached control region and rhodamine bleached region, region of interest (ROI), area under the white square. Error bar represents the s.e.m for n=15 cells (*P<0.00001). Scale bar, 10 μm. a.u., arbitrary units.
FIGS. 6A and 6B depict time dependent activation of caspase-3 GFPspark in MCF-7 cells upon STS (1 μM) induction. MCF-7 cells transfected with 2 μg of caspase-3 GFPspark plasmid and treated with 1 μM of STS for 2, 6, and 8 h. Cells were then labelled with the probe 1 for an additional 2 h. […] FRET validation between GFPspark and rhodamine fluorophore using the acceptor photobleaching method for the MCF-7 cells with STS induction for 2, 6 and 8 h. I=intensity (a.u.), arbitrary units. The calculated FRET efficiency for 2, 6 and 8 h are 38, 43, and 36% respectively.
FIGS. 7A and 7B depict applying AbRGT for specific detection of active caspase-3 GFPspark using the Rh-DEVD-FMK (probe 2). Caspase-3 GFPspark (2 μg) overexpressing MCF-7 cells were treated with 1 μM of STS for 4 h and labelled with the probe 2 (1 μM). […] The rise in GFPspark intensity after rhodamine photobleaching in the background is insignificant as compared to the ROI, i.e., 68 a.u., with a calculated FRET efficiency of 35%.
FIG. 12 depicts confocal images of MCF-7 cells in GFP, FRET and Rh channel. Caspase-3 GFPspark transfected MCF-7 cells were treated with STS for 4 h and labelled (a) with or (b) without probe 1. Cells were pre-treated with (c) Z-VAD-FMK (50 μM) and (d) Q-VD-OPh (50 μM) pan-caspase inhibitors 3 h before the probe labelling.
(§1) Plasmids and transient transfection: GFPspark tagged plasmids; caspase-3 GFPspark tag (Cat: HG10050-ACG), caspase-7 GFPspark tag (HG10049-ACG), caspase-8 GFPspark (HG10078-ACG), caspase-9 GFPspark (HG11151-ACG) and cathepsin B GFPspark (HG10483-ACG) were procured from Sino Biological. For transfection, cells were seeded in a 6-well plate at a density of 0.4 million cells/well. At 60-70% confluency, cells were transiently transfected for 24 h at 37° C. with 1 μg of the GFPspark tagged plasmid DNA construct mixed with 5 μL of Lipofectamine 2000 (Invitrogen) according to the manufacturer's instructions. 24 h post-transfection, cells were visualized under the GFP filter for GFPspark expression under fluorescence microscope at 10× magnification.
Labelling of active caspases in apoptotic cells with FABP: After 24 h of transfection, cells were treated with STS (1 μM) drug or TRAIL (1 μg/ml) for apoptotic induction and incubated for 2, 4, 6 and 8 h at 37° C. in a humidified atmosphere of 5% CO2/95% air. Cells were gently scraped off from the surface at the end of apoptotic induction and centrifuged at 3000 rpm for 5 min. The cell pellet was resuspended in 300 μL of fresh DMEM containing 1 μM of probe for probe 2 and incubated for additional 2 h at 37° C. in a humidified atmosphere of 5% CO2. Cells were again centrifuged at 3000 rpm for 5 mins, and the supernatant was decanted. […]

caspase-3/7 = experiment: Substrate-based reporter assay, CFP-DEVDR-YFP cleavage, live cell FRET
Description: FIGS. 8A and 8B depict the time course of cleavage for CFP-DEVDR-YFP plasmid. Time is relative to the first frame taken after 8 h of STS treatment. […] The percentage rise in the CFP/YFP intensity ratio was 47%. Rise in CFP/YFP intensity ratio is an indirect measure of caspase-3/7 activation.
To rule out that the obtained FRET signal in [FIG. 2b (i)] is not because of random physical interaction between GFPspark and rhodamine dye, MCF-7 cells were transfected with a plasmid encoding for enhanced green fluorescent protein (EGFP). EGFP transfected MCF-7 cells were treated with STS (1 μM) for 4 h, labelled with the probe 1. […] In-gel fluorescence assay was also performed to validate the multiple off-targets labelling of probe 1 which has also been shown in the previous reports. […] The calculated FRET efficiency for (n=15 cells) is 35±1%. […] Caspase-3 activation was also monitored using probe 2 as fABP which is different from probe 1 in terms of peptide recognition sequence; DEVD in exchange for VAD as DEVD peptide sequence is more specific for caspases as compared to VAD. Probe 2 yielded a similar pattern of fluorescence signal in GFPspark, FRET and Rh channel as that of probe 1 [FIG. 7(a)]. The calculated FRET efficiency was 35% [FIG. 7(b)]. […] Acceptor photo-bleaching method was done to confirm the FRET signal, and the calculated FRET efficiency was 32±2% [FIG. 10 (a & b)].

[1] = system: cleaved caspase-3 p17 fragment; experiment: Western blot of cleaved caspase-3 p17 fragment in HeLa cells; format: cell-based; details: STS 1 μM, after 12 h, 18 and 24 h
Description: FIG. 9 depicts a western blot analysis of cleaved caspase-3 p17 fragment after 18 and 24 h of STS (1 μM) treatment in HeLa cells. Lysate loading was done in triplicates. Double headed arrow representing 3 lanes with the same sample.
To rule out that the obtained FRET signal in [FIG. 2b (i)] is not because of random physical interaction between GFPspark and rhodamine dye, MCF-7 cells were transfected with a plasmid encoding for enhanced green fluorescent protein (EGFP). EGFP transfected MCF-7 cells were treated with STS (1 μM) for 4 h, labelled with the probe 1. […] In-gel fluorescence assay was also performed to validate the multiple off-targets labelling of probe 1 which has also been shown in the previous reports. […] The calculated FRET efficiency for (n=15 cells) is 35±1%. […] Caspase-3 activation was also monitored using probe 2 as fABP which is different from probe 1 in terms of peptide recognition sequence; DEVD in exchange for VAD as DEVD peptide sequence is more specific for caspases as compared to VAD. Probe 2 yielded a similar pattern of fluorescence signal in GFPspark, FRET and Rh channel as that of probe 1 [FIG. 7(a)]. The calculated FRET efficiency was 35% [FIG. 7(b)]. […] To confirm the reported results, the cleaved caspase-3 p17 fragment in immunoblotting was also detected by using active caspase-3 p17 antibody after […] of STS (1 μM) treatment [FIG. 9]. […]

cathepsin B GFPspark = molecular target: T2, cathepsin B GFPspark (Homo sapiens, UniProt P07858); experiment: AbRGT FRET imaging / acceptor photobleaching, cathepsin B GFPspark in HEK-293 cells; format: cell-based; details: HEK-293, inhibitor 50 μM 1 h before probe 1 labelling, STS 4 h
T2 construct: GFPspark (C); host or cells: HEK-293
Description: FIG. 20 depicts confocal images of HEK-293 cells in GFP, FRET and Rh channel Cathepsin B GFPspark transfected HEK-293 cells were treated with STS (1 μM) for 4 h and labelled (a) (i) with or (a) (iv) without probe 1. Cells were pre-treated with (a) (ii) Z-VAD-FMK (50 μM) or (a) (iii) E-64 (50 μM) inhibitor 1 h before the probe 1 labelling. (b) Quantification of the change in GFPS fluorescence intensity after rhodamine photobleaching in both unbleached control region and rhodamine bleached region (ROI), using acceptor photo-bleaching method. Error bar represents the s.e.m for n=10 cells (*P<0.00001). Scale bar, 10 μm. a.u., arbitrary units.
as §1
Labelling of active caspases in apoptotic cells with FABP: After 24 h of transfection, cells were treated with STS (1 μM) drug or TRAIL (1 μg/ml) for apoptotic induction and incubated for 2, 4, 6 and 8 h at 37° C. in a humidified atmosphere of 5% CO2/95% air. Cells were gently scraped off from the surface at the end of apoptotic induction and centrifuged at 3000 rpm for 5 min. The cell pellet was resuspended in 300 μL of fresh DMEM containing 1 μM of probe for probe 2 and incubated for additional 2 h at 37° C. in a humidified atmosphere of 5% CO2. Cells were again centrifuged at 3000 rpm for 5 mins, and the supernatant was decanted. Cells were washed with 1×PBS, thrice finally resuspended in 20 μL of 1×PBS. The cell suspension was put on a slide, and a coverslip was placed over it. It was left for air drying. Slides were then imaged for GFP, FRET and rhodamine fluorescence signals under confocal microscopy.
Inhibitor assay: Cells were pre-treated with 50 μM of Z-VAD-FMK or Q-VD-OPh or E-64 inhibitor 1 h before probe 1 labelling and incubated for 1 h at 37° C. in a humidified atmosphere of 5% CO2. Cells were gently scraped off from the surface at the end of inhibitor treatment and centrifuged at 3000 rpm for 5 min Cells were then labelled with the probe 1 as described in the previous section.
Fluorescence imaging studies, FRET procedure: Images were collected on Zeiss LSM710 confocal microscope with 25 mW argon laser using Zen10 software. The laser was tuned to lines at 488 nm (excitation laser for GFPspark) and 561 nm (excitation laser for rhodamine) Cells were examined with a 40× 1.3 NA Zeiss oil immersion objective and 2.4× zoom. Images were collected in the three channels; GFP channel, argon laser tuned at 488 nm with 2% laser intensity and fluorescence emission was collected in emission range of 490-550 nm; rhodamine channel, argon laser tuned to 561 nm laser with 2% laser intensity and fluorescence emission was collected in range 550-650 nm and FRET channel with excitation laser of GFPSPARK channel and emission range of rhodamine channel. […]

- rise in GFP intensity after rhodamine photobleaching in ROI (caspase-3 GFPspark; probe 1 μM): 68 a.u.
- calculated FRET efficiency (caspase-3 GFPspark; probe 1 μM 2 h, acceptor photobleaching): 35%
Compound: Rh-DEVD-FMK [probe 2]

Compound: CN[C@@H]1C[C@H]2O[C@@](C)([C@@H]1OC)n1c3ccccc3c3c4c(c5c6ccccc6n2c5c31)C(=O)NC4 [STS, staurosporine]
- percentage rise in the CFP/YFP intensity ratio (caspase-3/7; CFP-DEVDR-YFP plasmid, from 8 h of STS treatment): 47%
- time of caspase-3/7 activation after treatment (caspase-3/7; STS 1 μM, live cell imaging): 10 to 12 h
- cleaved caspase-3 p17 fragment in immunoblotting [1]: detected

- effect of inhibitor on FRET signal (cathepsin B GFPspark): abolished
Compound: CC(C)C[C@H](NC(=O)[C@H]1O[C@@H]1C(=O)O)C(=O)NCCCCN=C(N)N [E-64]
- signal in Rh channel in presence of inhibitor (cathepsin B GFPspark): sharp, intense punctate labelling was observed
